Data published in patent US11479551B2, “MTA-cooperative PRMT5 inhibitors” (Mirati Therapeutics, Inc., priority 2019, dated 2022).
Where two headings read alike, the source gives them in different places.

Target: PRMT5/MEP50 complex (Homo sapiens (Human), UniProt O14744)
Test: PRMT5:MEP50 FlashPlate Assay (histone H4 peptide substrate, plus and minus MTA)
Assay type: biochemical
Experimental: The PRMT5 inhibitory activity of compounds of the present invention was determined using either a PRMT5:MEP50 FlashPlate Assay (Reaction Biology Corporation) or a PRMT5:MEP50 HotSpot Assay (Reaction Biology Corporation).
1. PRMT5:MEP50 FlashPlate Assay

[1] = IC50 + 2 μM MTA (nM), in the presence of 2 μM MTA
[2] = in the absence of MTA, read-out: IC50

PRMT5/MEP50 complex, sequence (O14744 2-637): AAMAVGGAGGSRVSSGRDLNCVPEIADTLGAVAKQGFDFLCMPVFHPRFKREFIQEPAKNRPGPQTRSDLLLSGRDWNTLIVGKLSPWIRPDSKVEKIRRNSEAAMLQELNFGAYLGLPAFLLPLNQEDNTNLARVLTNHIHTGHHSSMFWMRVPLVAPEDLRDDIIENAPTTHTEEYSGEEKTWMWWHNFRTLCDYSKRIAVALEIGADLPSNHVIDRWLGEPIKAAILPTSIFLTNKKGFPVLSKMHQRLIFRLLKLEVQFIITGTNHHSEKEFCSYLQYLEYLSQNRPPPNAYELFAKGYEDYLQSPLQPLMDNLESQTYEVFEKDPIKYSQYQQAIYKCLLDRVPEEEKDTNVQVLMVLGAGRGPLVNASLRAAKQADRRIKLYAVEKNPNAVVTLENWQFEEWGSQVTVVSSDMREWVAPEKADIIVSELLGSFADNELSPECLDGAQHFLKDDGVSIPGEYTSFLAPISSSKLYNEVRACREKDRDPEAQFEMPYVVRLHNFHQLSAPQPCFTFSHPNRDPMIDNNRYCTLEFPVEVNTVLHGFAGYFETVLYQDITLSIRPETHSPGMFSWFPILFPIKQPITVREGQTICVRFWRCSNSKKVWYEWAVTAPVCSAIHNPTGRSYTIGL
PRMT5/MEP50 complex, sequence (Q9BQA1 2-342 partner): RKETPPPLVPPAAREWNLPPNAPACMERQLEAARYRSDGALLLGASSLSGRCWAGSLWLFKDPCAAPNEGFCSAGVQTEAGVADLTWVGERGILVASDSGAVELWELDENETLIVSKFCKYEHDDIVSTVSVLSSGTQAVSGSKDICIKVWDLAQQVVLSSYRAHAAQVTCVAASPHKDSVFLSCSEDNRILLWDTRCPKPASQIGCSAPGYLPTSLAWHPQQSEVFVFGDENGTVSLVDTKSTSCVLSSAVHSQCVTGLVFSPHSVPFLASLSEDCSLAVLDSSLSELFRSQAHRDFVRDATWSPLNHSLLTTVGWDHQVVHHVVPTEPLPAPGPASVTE

Row | IC50 [1] [nM] | IC50 [2] [nM] | SMILES
1 | 45000 | > 100000 | NCc1n[nH]c(=O)c2ccc(-c3cccnn3)cc12 [Example 4-1, 4-(aminomethyl)-6-(pyridazin-3-yl)phthalazin-1(2H)-one]
2 | 490 | 13800 | NCc1n[nH]c(=O)c2ccc(-c3cnsc3)cc12 [Example 4-2, 4-(aminomethyl)-6-(isothiazol-4-yl)phthalazin-1(2H)-one]
3 | 37 | 926 | NCc1n[nH]c(=O)c2ccc(-c3cnc4ccccn34)cc12 [Example 4-3, 4-(aminomethyl)-6-(imidazo[1,2-a]pyridin-3-yl)phthalazin-1(2H)-one]
4 | 230 | 5910 | Cc1ncc(-c2ccc3c(=O)[nH]nc(CN)c3c2)n1C [Example 4-4, 4-(aminomethyl)-6-(1,2-dimethyl-1H-imidazol-5-yl)phthalazin-1(2H)-one]
5 | 150 | 1730 | Cc1c(-c2ccc3c(=O)[nH]nc(CN)c3c2)cncc1C1CC1 [Example 4-5, 4-(aminomethyl)-6-(5-cyclopropyl-4-methylpyridin-3-yl)phthalazin-1(2H)-one]
6 | 8400 | > 100000 | N#Cc1ncccc1-c1ccc2c(=O)[nH]nc(CN)c2c1 [Example 4-7, 3-(4-(aminomethyl)-1-oxo-1,2-dihydrophthalazin-6-yl)picolinonitrile]
7 | 440 | > 100000 | Cn1ncc(-c2cncc(-c3ccc4c(=O)[nH]nc(CN)c4c3)c2)c1C#N [Example 4-8, 4-(5-(4-(aminomethyl)-1-oxo-1,2-dihydrophthalazin-6-yl)pyridin-3-yl)-1-methyl-1H-pyrazole-5-carbonitrile]
8 | 590 | 16000 | NCc1n[nH]c(=O)c2ccc(-c3cncc(OC(F)(F)F)c3)cc12 [Example 4-9, 4-(aminomethyl)-6-(5-(trifluoromethoxy)pyridin-3-yl)phthalazin-1(2H)-one]
9 | 1000 | > 100000 | N#Cc1ccn(-c2cncc(-c3ccc4c(=O)[nH]nc(CN)c4c3)c2)n1 [Example 4-10, 1-(5-(4-(aminomethyl)-1-oxo-1,2-dihydrophthalazin-6-yl)pyridin-3-yl)-1H-pyrazole-3-carbonitrile]
10 | 110 | 2400 | CN1CCn2ncc(-c3ccc4c(=O)[nH]nc(CN)c4c3)c2C1 [Example 4-11, 4-(aminomethyl)-6-(5-methyl-4,5,6,7-tetrahydropyrazolo[1,5-a]pyrazin-3-yl)phthalazin-1(2H)-one]
11 | 7400 | > 100000 | NCc1n[nH]c(=O)c2ccc(-c3cncc4nccn34)cc12 [Example 4-12, 4-(aminomethyl)-6-(imidazo[1,2-a]pyrazin-5-yl)phthalazin-1(2H)-one]
12 | 210 | 2560 | NCc1n[nH]c(=O)c2ccc(-c3cncn4cccc34)cc12 [Example 4-13, 4-(aminomethyl)-6-(pyrrolo[1,2-c]pyrimidin-4-yl)phthalazin-1(2H)-one]
13 | 7900 | > 100000 | Cc1nc2ccc(Cl)nn2c1-c1ccc2c(=O)[nH]nc(CN)c2c1 [Example 4-14, 4-(aminomethyl)-6-(6-chloro-2-methylimidazo[1,2-b]pyridazin-3-yl)phthalazin-1(2H)-one]

Further lines, the compound ahead of its results:

Row | SMILES | IC50 [1] [nM] | IC50 [2] [nM]
14 | NCc1n[nH]c(=O)c2ccc(-c3cncc(C(F)(F)F)c3)cc12 [Example 3-43, 4-(aminomethyl)-6-(5-(trifluoromethyl)pyridin-3-yl)phthalazin-1(2H)-one] | 340 | 6500
15 | NCc1n[nH]c(=O)c2ccc(-c3cncc(O)c3)cc12 [Example 3-44, 4-(aminomethyl)-6-(5-hydroxypyridin-3-yl)phthalazin-1(2H)-one] | 1200 | 19400
16 | COc1cncc(-c2ccc3c(=O)[nH]nc(CN)c3c2)c1 [Example 3-45, 4-(aminomethyl)-6-(5-methoxypyridin-3-yl)phthalazin-1(2H)-one] | 370 | 6810
17 | COCc1cncc(-c2ccc3c(=O)[nH]nc(CN)c3c2)c1 [Example 3-46, 4-(aminomethyl)-6-(5-(methoxymethyl)pyridin-3-yl)phthalazin-1(2H)-one] | 570 | 7880
18 | NCc1n[nH]c(=O)c2ccc(-c3cncc(CO)c3)cc12 [Example 3-47, 4-(aminomethyl)-6-(5-(hydroxymethyl)pyridin-3-yl)phthalazin-1(2H)-one] | 56 | 2950
19 | CS(=O)(=O)c1cncc(-c2ccc3c(=O)[nH]nc(CN)c3c2)c1 [Example 3-48, 4-(aminomethyl)-6-(5-(methylsulfonyl)pyridin-3-yl)phthalazin-1(2H)-one] | 280 | 7980
20 | CCOc1cncc(-c2ccc3c(=O)[nH]nc(CN)c3c2)c1 [Example 3-49, 4-(aminomethyl)-6-(5-ethoxypyridin-3-yl)phthalazin-1(2H)-one] | 110 | 3850
21 | NCc1n[nH]c(=O)c2ccc(-c3cncc(OC(F)F)c3)cc12 [Example 3-51, 4-(aminomethyl)-6-(5-(difluoromethoxy)pyridin-3-yl)phthalazin-1(2H)-one] | 500 | 11100
22 | CC(C)Oc1cncc(-c2ccc3c(=O)[nH]nc(CN)c3c2)c1 [Example 3-52, 4-(aminomethyl)-6-(5-isopropoxypyridin-3-yl)phthalazin-1(2H)-one] | 370 | 3000
23 | NCc1n[nH]c(=O)c2ccc(-c3cncc(OCC4CC4)c3)cc12 [Example 3-53, 4-(aminomethyl)-6-(5-(cyclopropylmethoxy)pyridin-3-yl)phthalazin-1(2H)-one] | 28 | 1350
24 | NCc1n[nH]c(=O)c2ccc(-c3cncc4ccccc34)cc12 [Example 3-54, 4-(aminomethyl)-6-(isoquinolin-4-yl)phthalazin-1(2H)-one] | 64 | 1290
25 | NCc1n[nH]c(=O)c2ccc(-c3cncc4[nH]ccc34)cc12 [Example 3-55, 4-(aminomethyl)-6-(1H-pyrrolo[2,3-c]pyridin-4-yl)phthalazin-1(2H)-one] | 83 | 1870
26 | Cc1c(Cl)cncc1-c1ccc2c(=O)[nH]nc(CN)c2c1 [Example 3-56, 4-(aminomethyl)-6-(5-chloro-4-methylpyridin-3-yl)phthalazin-1(2H)-one] | 550 | 11500
27 | NCc1n[nH]c(=O)c2ccc(-c3nncn3Cc3ccccc3)cc12 [Example 3-57, 4-(aminomethyl)-6-(4-benzyl-4H-1,2,4-triazol-3-yl)phthalazin-1(2H)-one] | 30000 | –
28 | NCc1n[nH]c(=O)c2ccc(-c3cncc(N4CCOCC4)c3)cc12 [Example 3-58, 4-(aminomethyl)-6-(5-morpholinopyridin-3-yl)phthalazin-1(2H)-one] | 510 | 8070
29 | Cc1ccccc1-c1ccc2c(=O)[nH]nc(CN)c2c1 [Example 3-60, 4-(aminomethyl)-6-(o-tolyl)phthalazin-1(2H)-one] | 8100 | > 100000
30 | CC(C)c1c[nH]c2ncc(-c3ccc4c(=O)[nH]nc(CN)c4c3)cc12 [Example 3-61, 4-(aminomethyl)-6-(3-isopropyl-1H-pyrrolo[2,3-b]pyridin-5-yl)phthalazin-1(2H)-one] | 3.4 | 80
